Calls of active or inactive are those of the source. No cut-off for these calls is given here.
What was measured:
HCT-116 [1] = test: Antitumor activity against human HCT-116 cells xenografted in BALB/c mouse assessed as downregulation of FAK expression in tumor at 10 mg/kg,ip administrated for 2 weeks by Western blotting analysis; format: functional, organism-based
HCT-116 [2] = test: Antitumor activity against human HCT-116 cells xenografted in BALB/c mouse assessed as downregulation of FAK phosphorylation in tumor at 20 mg/kg,ip administrated for 2 weeks by Western blotting analysis; format: functional, organism-based
[3] = Toxicity in BALB/c mouse xenografted with human HCT-116 cells assessed as change in serum ALT level at 10 mg/kg,ip administrated for 2 weeks; format: organism-based; settings: in vivo, 336 h
HCT-116 [4] = test: Antitumor activity against human HCT-116 cells xenografted in BALB/c mouse assessed as downregulation of FAK expression in tumor at 20 mg/kg,ip administrated for 2 weeks by Western blotting analysis; format: functional, organism-based
HCT-116 [5] = test: Antitumor activity against human HCT-116 cells xenografted in BALB/c mouse assessed as downregulation of FGFR4 signalling pathway in tumor at 20 mg/kg,ip administrated for 2 weeks by Western blotting analysis; format: functional, organism-based
[6] = Hepatotoxicity in ICR mouse assessed as change in serum creatinine level at 20 mg/kg,po administrated for 1 week; format: toxicity, organism-based; settings: in vivo, 168 h, time 1 weeks
[7] = Toxicity in ICR mouse assessed as histopathological change in kidney at 20 mg/kg,po administrated for 1 week by hematoxylin and eosin staining analysis; format: organism-based; settings: in vivo, 168 h, time 1 weeks
[8] = Toxicity in BALB/c mouse xenografted with human HCT-116 cells assessed as change in kidney weight at 20 mg/kg,ip administrated for 2 weeks; format: organism-based; settings: in vivo, 336 h
HCT-116 [9] = test: Antitumor activity against human HCT-116 cells xenografted in BALB/c mouse assessed as downregulation of FAK phosphorylation in tumor at 10 mg/kg,ip administrated for 2 weeks by Western blotting analysis; format: functional, organism-based
HCT-116 [10] = test: Anti-migration activity in human HCT-116 cells assessed as downregulation of FAK phosphorylation by Western blotting analysis; format: functional, cell-based
[11] = Toxicity in ICR mouse assessed as change in spleen weight at 60 mg/kg,po administrated for 1 week; format: organism-based; settings: in vivo, 168 h, time 1 weeks
[12] = target: Fibroblast growth factor receptor 2 (Homo sapiens, UniProt P21802); test: Inhibition of FGFR2 (unknown origin) kinase activity
Chain of Fibroblast growth factor receptor 2 (P21802 whole entry): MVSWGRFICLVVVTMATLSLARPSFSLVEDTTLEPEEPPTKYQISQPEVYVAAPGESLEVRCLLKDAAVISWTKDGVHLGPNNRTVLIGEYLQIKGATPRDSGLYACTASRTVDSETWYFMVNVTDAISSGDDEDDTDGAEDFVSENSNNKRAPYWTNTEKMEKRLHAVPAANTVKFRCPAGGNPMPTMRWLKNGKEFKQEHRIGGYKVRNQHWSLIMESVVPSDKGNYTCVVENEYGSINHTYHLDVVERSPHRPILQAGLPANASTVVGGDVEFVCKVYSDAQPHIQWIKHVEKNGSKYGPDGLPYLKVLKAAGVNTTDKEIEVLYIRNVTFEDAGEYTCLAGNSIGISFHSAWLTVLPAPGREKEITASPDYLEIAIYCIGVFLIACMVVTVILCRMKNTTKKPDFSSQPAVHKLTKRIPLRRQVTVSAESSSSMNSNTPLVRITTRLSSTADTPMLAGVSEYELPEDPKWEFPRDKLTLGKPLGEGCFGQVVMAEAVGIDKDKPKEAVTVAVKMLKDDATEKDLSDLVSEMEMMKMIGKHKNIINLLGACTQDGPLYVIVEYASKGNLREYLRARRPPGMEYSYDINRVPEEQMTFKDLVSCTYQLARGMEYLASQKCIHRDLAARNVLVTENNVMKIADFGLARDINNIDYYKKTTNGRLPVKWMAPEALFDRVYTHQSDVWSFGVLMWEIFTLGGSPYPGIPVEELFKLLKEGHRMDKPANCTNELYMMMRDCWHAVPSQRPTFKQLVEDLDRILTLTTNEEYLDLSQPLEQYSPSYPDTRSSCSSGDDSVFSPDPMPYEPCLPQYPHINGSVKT

HCT-116 [13] = test: Antitumor activity against human HCT-116 cells xenografted in BALB/c mouse assessed as change in cell morphology at 20 mg/kg,ip administrated for 2 weeks by hematoxylin and eosin staining based analysis; format: functional, organism-based
[14] = Toxicity in ICR mouse assessed as change in heart weight at 20 mg/kg,po administrated for 1 week; format: organism-based; settings: in vivo, 168 h, time 1 weeks
[15] = Toxicity in BALB/c mouse xenografted with human HCT-116 cells assessed as change in lung weight at 20 mg/kg,ip administrated for 2 weeks; format: organism-based; settings: in vivo, 336 h
HCT-116 [16] = test: Induction of apoptosis in human HCT-116 cells assessed as downregulation of ratio of Bcl-2/Bax expression at 3 to 12 uM incubated for 48 hrs by Western blotting analysis; format: functional, cell-based; settings: dose 3-12 µM
HCT-116 [17] = test: Anti-migration activity in human HCT-116 cells assessed as upregulation of E-cad expression by Western blotting analysis; format: functional, cell-based
[18] = target: Fibroblast growth factor receptor 1 (Homo sapiens, UniProt P11362); test: Inhibition of FGFR1 (unknown origin) kinase activity
Chain of Fibroblast growth factor receptor 1 (P11362 whole entry): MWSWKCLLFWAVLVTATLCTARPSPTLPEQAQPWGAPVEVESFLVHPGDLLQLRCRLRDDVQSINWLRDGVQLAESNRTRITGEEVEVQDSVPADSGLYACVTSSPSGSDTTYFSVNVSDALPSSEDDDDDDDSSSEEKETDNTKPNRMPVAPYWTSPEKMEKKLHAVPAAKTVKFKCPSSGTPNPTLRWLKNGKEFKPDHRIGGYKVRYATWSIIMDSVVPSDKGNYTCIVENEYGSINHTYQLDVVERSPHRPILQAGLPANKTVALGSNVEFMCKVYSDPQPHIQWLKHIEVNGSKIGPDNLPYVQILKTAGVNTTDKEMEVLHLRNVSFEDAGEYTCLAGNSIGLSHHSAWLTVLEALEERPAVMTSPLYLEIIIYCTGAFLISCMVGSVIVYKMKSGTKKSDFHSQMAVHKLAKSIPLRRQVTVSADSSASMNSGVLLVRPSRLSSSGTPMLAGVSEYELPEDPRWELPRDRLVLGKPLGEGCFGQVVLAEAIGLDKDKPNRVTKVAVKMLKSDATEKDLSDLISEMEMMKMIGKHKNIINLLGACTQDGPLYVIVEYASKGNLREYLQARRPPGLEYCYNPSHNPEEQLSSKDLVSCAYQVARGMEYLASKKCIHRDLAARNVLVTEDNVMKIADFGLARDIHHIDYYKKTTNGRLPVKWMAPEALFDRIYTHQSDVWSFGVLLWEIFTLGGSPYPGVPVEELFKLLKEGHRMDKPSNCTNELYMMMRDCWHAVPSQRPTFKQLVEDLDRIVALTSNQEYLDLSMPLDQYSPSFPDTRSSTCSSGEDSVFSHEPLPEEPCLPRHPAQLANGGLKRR

HCT-116 [19] = test: Antitumor activity against human HCT-116 cells xenografted in BALB/c mouse assessed as upregulation of E-cad expression in tumor at 20 mg/kg,ip administrated for 2 weeks by Western blotting analysis; format: functional, organism-based
RKO [20] = test: Anti-migration activity in human RKO cells assessed as upregulation of E-cad expression by Western blotting analysis; format: functional, cell-based
HCT-116 [21] = test: cells; settings: Homo sapiens, HCT-116, 48 h
Description: Antiproliferative activity against human HCT-116 cells assessed as inhibition of cell growth incubated for 48 hrs by MTT assay

HCT-116 [22] = test: Antitumor activity against human HCT-116 cells xenografted in BALB/c mouse assessed as decrease in FAK expression in tumor tissue at ip administrated for 2 weeks by immunohistochemical analysis; format: functional, organism-based
HCT-116 [23] = test: Antitumor activity against human HCT-116 cells xenografted in BALB/c mouse assessed as tumor growth inhibition at 20 mg/kg,ip administrated for 2 weeks relative to control; format: functional; settings: HCT-116, 336 h, read-out: TGI
RKO [24] = test: Anti-migration activity in human RKO cells assessed as loss of actin cytoskeletal fibers at 3 to 12 uM by immunofluorescence assay; format: functional, cell-based; settings: dose 3-12 µM
HCT-116 [25] = test: Antitumor activity against human HCT-116 cells xenografted in BALB/c mouse assessed as downregulation of N-cad expression in tumor at 20 mg/kg,ip administrated for 2 weeks by Western blotting analysis; format: functional, organism-based
HCT-116 [26] = test: Antitumor activity against human HCT-116 cells xenografted in BALB/c mouse assessed as downregulation of N-cad expression in tumor at 10 mg/kg,ip administrated for 2 weeks by Western blotting analysis; format: functional, organism-based
SW480 [27] = test: Anti-migration activity in human SW480 cells assessed as change in FAK distribution at 3 to 12 uM by immunofluorescence assay; format: functional, cell-based; settings: dose 3-12 µM
HCT-116 [28] = test: Antiproliferative activity against human HCT-116 cells assessed as inhibition of cell growth incubated for 48 hrs by EdU staining method; format: functional, cell-based
RKO [29] = test: Anti-migration activity in human RKO cells assessed as change in FAK expression at 3 to 12 uM by Western blotting analysis; format: functional, cell-based; settings: dose 3-12 µM
[30] = Toxicity in BALB/c mouse xenografted with human HCT-116 cells assessed as change in serum ALT level at 20 mg/kg,ip administrated for 2 weeks; format: organism-based; settings: in vivo, 336 h
HCT-116 [31] = test: Antiproliferative activity against human HCT-116 cells assessed as inhibition of colony formation incubated for 2 weeks by crystal violet staining method; format: functional, cell-based
HCT-116 [32] = test: Anti-migration activity in human HCT-116 cells assessed as change in FAK distribution at 3 to 12 uM by immunofluorescence assay; format: functional, cell-based; settings: dose 3-12 µM
[33] = Toxicity in ICR mouse assessed as change in liver weight at 20 mg/kg,po administrated for 1 week; format: organism-based; settings: in vivo, 168 h, time 1 weeks
SW480 [34] = test: cells; settings: Homo sapiens, SW480, 48 h
Description: Antiproliferative activity against human SW480 cells assessed as inhibition of cell growth incubated for 48 hrs by MTT assay

RKO [35] = test: Induction of apoptosis in human RKO cells assessed as downregulation of ratio of Bcl-2/Bax expression at 3 to 12 uM incubated for 48 hrs by Western blotting analysis; format: functional, cell-based; settings: dose 3-12 µM
[36] = Toxicity in ICR mouse assessed as histopathological change in kidney at 60 mg/kg,po administrated for 1 week by hematoxylin and eosin staining analysis; format: organism-based; settings: in vivo, 168 h, time 1 weeks
RKO [37] = test: Anti-migration activity in human RKO cells assessed as downregulation of FAK phosphorylation by Western blotting analysis; format: functional, cell-based
HCT-116 [38] = test: Anti-migration activity in human HCT-116 cells assessed as loss of actin cytoskeletal fibers at 3 to 12 uM by immunofluorescence assay; format: functional, cell-based; settings: dose 3-12 µM
RKO [39] = test: Antiproliferative activity against human RKO cells assessed as inhibition of colony formation incubated for 2 weeks by crystal violet staining method; format: functional, cell-based
HCT-116 [40] = test: Anti-migration activity in human HCT-116 cells assessed as change in FAK expression at 3 to 12 uM by Western blotting analysis; format: functional, cell-based; settings: dose 3-12 µM

With `C=CC(=O)NCCCn1c(=O)c(-c2c(Cl)c(OC)cc(OC)c2Cl)cc2cnc(Nc3c(C)cccc3NC(=O)C=C)cc21` the Activity (HCT-116 [1]) was “Active”, the Activity (HCT-116 [2]) was “Active” and the Activity [3] was “Non-Toxic”. For the same molecule, the Activity (HCT-116 [4]) was “Active”, the Activity (HCT-116 [5]) was “Active” and the Activity [6] was “Non-Toxic”. For the same molecule, the Activity [7] was “Non-Toxic”, the Activity [8] was “Non-Toxic” and the Activity (HCT-116 [9]) was “Active”. The Activity (HCT-116 [10]) was “Dose-Dependent Effect”, the Activity [11] was “Non-Toxic” and the IC50 [12] was 0.528 µM. The Activity (HCT-116 [13]) was “Active”, the Activity [14] was “Non-Toxic” and the Activity [15] was “Non-Toxic”. The Activity (HCT-116 [16]) was “Active”, the Activity (HCT-116 [17]) was “Dose-Dependent Effect” and the IC50 [18] was 0.643 µM. The Activity (HCT-116 [19]) was “Active”, the Activity (RKO [20]) was “Dose-Dependent Effect” and the IC50 (HCT-116 [21]) was 4.24 µM. The Activity (HCT-116 [22]) was “Dose-Dependent Effect”, the inhibition in vivo at 20 mg/kg (HCT-116 [23]) was 70.5% and the Activity (RKO [24]) was “Active”. For the same molecule, the Activity (HCT-116 [25]) was “Active”, the Activity (HCT-116 [26]) was “Active” and the Activity (SW480 [27]) was “Active”. The Activity (HCT-116 [28]) was “Dose-Dependent Effect”, the Activity (RKO [29]) was “inactive” and the Activity [30] was “Non-Toxic”. The Activity (HCT-116 [31]) was “Dose-Dependent Effect”, the Activity (HCT-116 [32]) was “Active” and the Activity [33] was “Non-Toxic”. For the same molecule, the IC50 (SW480 [34]) was 6.99 µM, the Activity (RKO [35]) was “Active” and the Activity [36] was “Non-Toxic”. The Activity (RKO [37]) was “Dose-Dependent Effect”, the Activity (HCT-116 [38]) was “Active” and the Activity (RKO [39]) was “Dose-Dependent Effect”. For the same molecule, the Activity (HCT-116 [40]) was “inactive”.

Source: ChEMBL document CHEMBL5625222, “Design, synthesis, and biological evaluation of 1,6-naphthyridine-2-one derivatives as novel FGFR4 inhibitors for the treatment of colorectal cancer” (Eur J Med Chem, 2023)
